We go through five compounds from US9403855B2 (priority 2010, dated 2016).

“And” between values parts separate entries of the source, which are not always exact repeats. Equal values may be shown once. Where only a bound is given, the exact number is not on record here.

Series [1] concerns A/California/7/2009 (pandemic H1N1). Description: microbe, parasite or virus in culture. Format: cell-based, Influenza virus A/California/7/2009 (pandemic H1N1). The conditions noted are these: Influenza A virus, H1N1, read-out: EC50 (anti-influenza activity).
Series [2] has as its system A/Vietnam/1194/2004 RG14 (H5N1). Description: microbe, parasite or virus in culture. The following applies: Influenza A virus, H5N1, read-out: EC50 (anti-influenza activity). The class given is cell-based, Influenza virus A/Vietnam/1194/2004 RG14 (H5N1).
The next series can be described thus: in vitro. The conditions noted are these: human.
A further series has as its system A/Udorn/307/1972 (H3N2). Description: microbe, parasite or virus in culture. The class given is cell-based, Influenza virus A/Udorn/307/1972 (H3N2). The conditions noted are these: Influenza A virus, H3N2, read-out: EC50 (anti-influenza activity).
The test system of another series is A/WSN/1933 (H1N1). Description: microbe, parasite or virus in culture. Format: cell-based, Influenza virus A/WSN/1933 (H1N1). The following applies: Influenza A virus, read-out: EC50 (anti-influenza activity).
Series [3] addresses neuraminidase of A/Udorn/307/1972 (H3N2) (Influenza A virus, UniProt P0DOF6). Description: biochemical. More on the design: species or system Influenza virus A/Udorn/307/1972 (H3N2).
Series [4] concerns the target neuraminidase of A/WSN/1933 (H1N1) (Influenza A virus, UniProt P03470). Description: biochemical. More on the design: species or system Influenza virus A/WSN/1933 (H1N1).
Series [5] deals with neuraminidase of A/California/7/2009 (pandemic H1N1) (Influenza A virus, UniProt C3W6G3). Description: biochemical. Set-up: species or system Influenza virus A/California/7/2009 (pandemic H1N1).
The conditions of series [6]: in vivo; cited from earlier work.
Series [7] deals with mixed 293T cells expressing 274H and 274Y neuraminidase of A/Hanoi/30408/2005 (H5N1). Format: binding.
The test system of series [8] is 274H influenza virus (WSN), immobilized. Format: binding.
Series [9] deals with wild type (274H) neuraminidase of A/Hanoi/30408/2005 (H5N1) on 293T cells. The class given is binding.

Sequence of neuraminidase of A/Udorn/307/1972 (H3N2) (P0DOF6 whole entry, looked up): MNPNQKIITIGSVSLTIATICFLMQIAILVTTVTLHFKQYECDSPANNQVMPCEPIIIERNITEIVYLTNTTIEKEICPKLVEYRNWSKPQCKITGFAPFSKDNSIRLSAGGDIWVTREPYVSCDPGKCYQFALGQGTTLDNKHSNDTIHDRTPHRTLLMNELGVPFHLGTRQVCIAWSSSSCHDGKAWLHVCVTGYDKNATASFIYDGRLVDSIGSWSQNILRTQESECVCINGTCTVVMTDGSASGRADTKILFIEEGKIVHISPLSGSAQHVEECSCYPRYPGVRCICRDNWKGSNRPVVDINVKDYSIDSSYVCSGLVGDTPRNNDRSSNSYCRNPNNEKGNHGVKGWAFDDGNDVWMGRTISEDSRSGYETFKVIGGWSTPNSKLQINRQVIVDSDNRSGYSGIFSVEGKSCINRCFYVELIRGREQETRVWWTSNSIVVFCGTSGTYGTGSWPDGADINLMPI
Sequence of neuraminidase of A/WSN/1933 (H1N1) (P03470 whole entry, looked up): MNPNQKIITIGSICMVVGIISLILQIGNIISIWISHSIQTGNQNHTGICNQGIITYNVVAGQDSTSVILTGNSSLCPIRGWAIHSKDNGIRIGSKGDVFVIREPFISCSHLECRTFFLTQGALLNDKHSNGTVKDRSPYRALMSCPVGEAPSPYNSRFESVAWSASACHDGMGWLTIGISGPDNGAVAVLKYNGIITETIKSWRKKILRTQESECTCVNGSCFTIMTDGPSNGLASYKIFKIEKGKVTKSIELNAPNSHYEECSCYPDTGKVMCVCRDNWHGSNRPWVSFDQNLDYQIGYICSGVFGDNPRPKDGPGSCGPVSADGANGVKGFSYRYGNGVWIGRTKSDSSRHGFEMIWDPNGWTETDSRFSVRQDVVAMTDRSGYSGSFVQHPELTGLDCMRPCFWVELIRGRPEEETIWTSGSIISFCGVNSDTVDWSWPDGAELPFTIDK

With `CCC(CC)O[C@@H]1C=C(C(=O)O)C[C@H](N)[C@H]1NC(C)=O` [Oseltamivir acid, oseltamivir carboxylic acid, reference compound], the EC50 in series [1] amounted to 76 nM; in [2], 1250 ± 440 nM; with A/Udorn/307/1972 (H3N2), 3 ± 1.8 nM; in the series with A/WSN/1933 (H1N1), 12.2 ± 2.3 nM. The CC50 in “in vitro” is > 100000 nM.

`CC(=O)N[C@H]1[C@H]([C@H](O)[C@H](O)CO)OC(P(=O)(O)O)=C[C@@H]1N` [1a, (5-Acetamido-4-amino-6-(1,2,3-hydroxy)propyl-4,5,6-trihydropyran-2-yl) phosphonic acid]: the half-maximal inhibitory concentration (IC50) in series [3] worked out at 6.4 nM; in series [4], 0.65 nM; in series [5], 0.9 nM. In addition, the concentration for a half-maximal effect (EC50) in series [1] worked out at 20.3 nM; in series [2], 978 nM; in the series on A/Udorn/307/1972 (H3N2) it was 55 nM; in the series on A/WSN/1933 (H1N1), 1.3 nM. Further, the CC50 in “in vitro” was > 30000 nM.

For `CC(=O)N[C@H]1[C@H]([C@H](O)[C@H](O)CO)OC(P(=O)(O)O)=C[C@@H]1NC(=N)N` [1b, (5-Acetamido-4-guanidino-6-(1,2,3-hydroxy)propyl-4,5,6-trihydropyran-2-yl) phosphonic acid], the IC50 in [3] was found to be 5.2 nM; in series [4], 1.2 nM; in series [5], 0.8 nM. In addition, the 50% effective concentration (EC50) was 26.5 nM in series [1], 1700 ± 500 nM in series [2], 32 ± 23 nM in the series on A/Udorn/307/1972 (H3N2) and 2.4 nM in the series on A/WSN/1933 (H1N1). The CC50 in the series “in vitro” is > 50000 nM.

`CC(=O)N[C@H]1[C@H]([C@H](O)[C@H](O)CO)OC(C(=O)O)=C[C@@H]1N=C(N)N` [Zanamivir, reference compound]: the Bioavailability in series [6] was 2%. The half-maximal effective concentration (EC50) is 267 nM in series [1], 16400 ± 2980 nM in [2], 41 ± 6 nM in the series on A/Udorn/307/1972 (H3N2) and 23.5 ± 8.5 nM with A/WSN/1933 (H1N1). In addition, in “in vitro”, the CC50 was > 100000 nM.

`CC(=O)N[C@H]1[C@H]([C@H](OC(=O)NCc2cn(CCCCCNC(=O)CCCCC3SC[C@@H]4NC(=O)N[C@H]34)nn2)[C@H](O)CO)OC(C(=O)O)=C[C@@H]1NC(=N)N` (stereo partly shown) [ZB] gave a melting point of 170 to 172 °C. The “percentage of ZB labeled cells” value in series [7] is 84.4% and 84.62% and 86.07% and 83.58%. The “residual ZB binding in OC competition” value in series [8] is listed as “about 3%”. Further, the “percentage of ZB labeled cells” value in [9] amounted to 83.95%.
